Values after ≈ are worked out from the molar mass of the structure shown. Like-named read-outs stand apart in the source and are kept apart here.
How the values were obtained:
[1] = Testosterone solubility by the increment method; assay type: physicochemical; details: thermodynamic from solid
Method: A known amount of solvent (2 mL) is stirred at 37° C. in a closed Erlenmeyer.

[2] = biological target: sex hormone binding globulin, albumin (Homo sapiens, UniProt P02768); details: cited from earlier work
sex hormone binding globulin, albumin (Homo sapiens, UniProt P02768), sequence (P02768 25-609): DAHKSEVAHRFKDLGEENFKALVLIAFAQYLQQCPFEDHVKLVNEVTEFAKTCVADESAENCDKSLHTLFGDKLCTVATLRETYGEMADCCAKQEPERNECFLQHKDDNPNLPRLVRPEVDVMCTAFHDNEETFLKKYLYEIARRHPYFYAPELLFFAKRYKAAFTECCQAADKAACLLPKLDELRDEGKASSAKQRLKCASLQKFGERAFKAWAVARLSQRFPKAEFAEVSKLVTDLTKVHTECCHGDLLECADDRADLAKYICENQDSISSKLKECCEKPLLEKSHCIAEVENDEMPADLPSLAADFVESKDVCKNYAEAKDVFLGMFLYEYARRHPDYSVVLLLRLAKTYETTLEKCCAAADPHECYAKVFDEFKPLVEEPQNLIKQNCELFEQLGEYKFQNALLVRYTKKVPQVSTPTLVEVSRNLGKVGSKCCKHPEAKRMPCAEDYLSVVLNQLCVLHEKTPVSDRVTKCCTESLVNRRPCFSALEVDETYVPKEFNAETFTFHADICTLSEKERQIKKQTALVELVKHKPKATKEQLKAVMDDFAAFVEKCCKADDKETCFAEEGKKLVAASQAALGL

[3] = biological target: T1, sex hormone binding globulin, albumin (Homo sapiens, UniProt P04278); details: cited from earlier work
T1 sequence (P04278 30-402): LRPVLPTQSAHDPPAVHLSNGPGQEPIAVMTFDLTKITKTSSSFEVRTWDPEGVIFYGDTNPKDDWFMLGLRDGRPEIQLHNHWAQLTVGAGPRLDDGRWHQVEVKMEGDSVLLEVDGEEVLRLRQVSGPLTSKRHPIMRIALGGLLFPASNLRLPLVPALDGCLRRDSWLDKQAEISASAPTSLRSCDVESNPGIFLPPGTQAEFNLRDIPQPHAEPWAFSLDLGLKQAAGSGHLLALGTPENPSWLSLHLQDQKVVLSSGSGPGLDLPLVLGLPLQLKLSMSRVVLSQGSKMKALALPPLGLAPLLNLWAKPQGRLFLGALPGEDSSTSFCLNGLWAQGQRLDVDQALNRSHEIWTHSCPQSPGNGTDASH

[4] = test system: sex hormone binding globulin, albumin; details: cited from earlier work

Compound `C[C@]12CC[C@H]3[C@@H](CCC4=CC(=O)CC[C@@]43C)[C@@H]1CC[C@@H]2O` [Testosterone] has a solubility ([1]; aqueous with cosolvent or surfactant or cyclodextrin, water/ethanol mixture, 95% ethanol (v/v) 63/37, 37° C.) of 30 mg/mL (≈ 104 mM), a solubility ([1]; aqueous with cosolvent or surfactant or cyclodextrin, water/ethanol mixture, 95% ethanol (v/v) 74/26, 37° C.) of 52 mg/mL (≈ 180 mM) and a solubility ([1]; aqueous with cosolvent or surfactant or cyclodextrin, water/ethanol mixture, 95% ethanol (v/v) 84/16, 37° C.) of 120 mg/mL (≈ 416 mM). The solubility ([1]; aqueous with cosolvent or surfactant or cyclodextrin, water/ethanol mixture, 95% ethanol (v/v) 86/14, 37° C.) was 160 mg/mL (≈ 555 mM), the solubility ([1]; oleic acid (OA) 100%, oil or lipid, solvent OA (100%), 37° C.) was 66 mg/mL (≈ 229 mM) and the solubility ([1]; organic solvent or mixture, solvent Transcutol (100%), 37° C.) was 140 mg/mL (≈ 485 mM). The solubility ([1]; organic solvent or mixture, water/ethanol mixture, 95% ethanol (v/v) 100/0, 37° C.) was 340 mg/mL (≈ 1180 mM), the solubility ([1]; propylene glycol (PG) 100%, organic solvent or mixture, solvent PG (100%), 37° C.) was 86 mg/mL (≈ 298 mM) and the solubility ([1]; propylene glycol dipelargonate (PGDP) 100%, oil or lipid, solvent PGDP (100%), 37° C.) was 18 mg/mL (≈ 62.4 mM). For the same compound, the solubility ([1]; propylene glycol/oleic acid (PG/OA) 50/50, organic solvent or mixture, solvent PG/OA (50/50), 37° C.) was 79 mg/mL (≈ 274 mM), the “share bound weakly to albumin” value ([2]; men) was 60% and the “share bound weakly to albumin” value ([2]; women) was 34%. For the same compound, the “share of the binding to sex hormone binding globulin” value ([3]; men) was “approximately 40%”, the “share of the binding to sex hormone binding globulin” value ([3]; women) was “approximately 66%” and the “bound to protein in the blood” value ([4]; men) was 98%. The “bound to protein in the blood” value ([4]; women) was 98%.
